Test results from patent publication EP2272817A1, “PAI-1 INHIBITOR” (Institute of Medicinal Molecular Design, Inc., priority 2008, dated 2009).

Biological target: recombinant human PAI-1 (Homo sapiens, UniProt P05121)
Assay: Test Example 2: Human PAI-1 Inhibitory Activity (pH 7.4 HEPES buffer, 10 minutes incubation with two-chain tPA)
Type: biochemical
Set-up: purchased Molecular Innovations, Inc
Conditions: for inhibition at 0.1 µM / inhibition at 0.3 µM / inhibition at 1 µM / inhibition at 3 µM / inhibition at 10 µM / inhibition at 25 µM: read-out: Inhibition Rate of PAI-1 Activity (%)
Method: 0.1 M HEPES, 0.1 M NaCl. 1 mM EDTA. 0.1 % Polyethylene glycol 8,000 (Hampton Research Corporation),
2 mM Dimethyldecylphoshine oxide [Apo-10] (Fluka Corporation)

recombinant human PAI-1, sequence (P05121 24-402): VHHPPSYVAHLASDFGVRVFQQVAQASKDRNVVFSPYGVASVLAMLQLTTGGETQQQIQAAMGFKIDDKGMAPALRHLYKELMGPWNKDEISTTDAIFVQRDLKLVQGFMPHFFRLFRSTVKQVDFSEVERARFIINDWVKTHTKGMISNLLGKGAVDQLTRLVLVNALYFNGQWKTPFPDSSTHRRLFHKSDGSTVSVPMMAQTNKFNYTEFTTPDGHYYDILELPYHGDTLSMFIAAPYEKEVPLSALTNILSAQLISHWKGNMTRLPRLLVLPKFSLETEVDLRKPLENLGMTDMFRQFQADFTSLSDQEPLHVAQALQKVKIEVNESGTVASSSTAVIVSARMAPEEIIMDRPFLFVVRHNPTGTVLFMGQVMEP

| Compound | inhibition at 0.1 µM [%] | inhibition at 0.3 µM [%] | inhibition at 1 µM [%] | inhibition at 3 µM [%] | inhibition at 10 µM [%] | inhibition at 25 µM [%] | IC50 (concentration that inhibits 50 % of the human PAI-1 activity, calculated from the inhibition rates of Test Example 2, read-out: IC50) [nM] |
| --- | --- | --- | --- | --- | --- | --- | --- |
| CCC(CC)Oc1ccc(-c2ccc(OCC(=O)O)c(Oc3ccc(C(C)(C)C)cc3)c2)cc1 [Compound 447] | 4 | 11 | 89 | > 99 | – | – | – |
| CCCCC(Oc1cc(Oc2ccc(OC(F)(F)F)cc2)ccc1OCCCCc1ccccc1)C(=O)O (stereo not drawn) [Compound 309] | 1 | 17 | 66 | 91 | – | – | – |
| CCCCCOc1cc(Oc2ccc(OC(F)(F)F)cc2)ccc1N(CCCCc1ccccc1)C(=O)C(=O)O [Compound 362] | 11 | 18 | 61 | > 99 | – | – | – |
| CCCCCOc1ccc(-c2ccc(OC(F)(F)F)cc2)cc1N(CCCCc1ccc(Cl)cc1)C(=O)C(=O)O [Compound 384] | 0 | 11 | 91 | 95 | – | – | – |
| CC(C)(C)c1ccc(Oc2ccc(-c3ccc(OC(F)(F)F)cc3)cc2N(CCCCc2ccccc2)C(=O)C(=O)O)cc1 [Compound 636] | 2 | 21 | 72 | 81 | – | – | – |
| CC(C)(C)c1ccc(Sc2cc(-c3ccc(OC(F)(F)F)cc3)ccc2C(=O)C(=O)O)cc1 [Compound 548] | 0 | 16 | 95 | > 99 | – | – | – |
| CN(C(=O)c1ccc(OC(F)(F)F)cc1)c1ccc(OCc2ccc(C(C)(C)C)cc2)c(CCC(=O)O)c1 [Compound 416] | – | – | 26 | 54 | > 99 | > 99 | – |
| Cc1cc(C)cc(-c2ccc(/C=C/C(=O)O)c(Oc3ccc(C(C)(C)C)cc3)c2)c1 [Compound 496] | 4 | 9 | 85 | > 99 | – | – | – |
| CC(C)(C)c1ccc(CN(C(=O)C(=O)O)c2ccc(C(=O)Nc3ccc(OC(F)(F)F)cc3)cc2)cc1 [Compound 617] | – | – | 6 | 64 | > 99 | > 99 | – |
| CCCCC(Nc1cc(-c2ccc(OC(F)(F)F)cc2)ccc1Oc1ccc(C(C)(C)C)cc1)C(=O)O (stereo not drawn) [Compound 423] | 1 | 1 | 74 | 96 | – | – | – |
| Cc1cc(C)cc(Oc2cc(-c3ccc(C(C)(C)C)cc3)ccc2CCC(=O)O)c1 [Compound 499] | 15 | 14 | 77 | 98 | – | – | – |
| CC(C)(C)c1ccc(Oc2ccc(Nc3ccc(OC(F)(F)F)cc3)cc2CCC(=O)O)cc1 [Compound 432] | 4 | 0 | 25 | 97 | – | – | – |
| O=C(O)C(=O)N(CCCCc1ccccc1)c1cc(-c2ccc(OC(F)(F)F)cc2)ccc1OC1CCCCCC1 [Compound 659] | 12 | 26 | > 99 | 96 | – | – | – |
| CC(C)(C)c1ccc(Sc2cc(-c3ccc(OC(F)(F)F)cc3)ccc2CC(=O)O)cc1 [Compound 530] | 17 | 21 | 93 | > 99 | – | – | – |
| CC(C)(C)c1ccc(Oc2cc(-c3ccc(OC(F)(F)F)cc3)ccc2N(CCCCc2ccccc2)C(=O)C(=O)O)cc1 [Compound 635] | 14 | 30 | 45 | 91 | – | – | – |
| CCCCCCCCCOc1cc(N(CCCCc2ccccc2)C(=O)C(=O)O)ccc1-c1ccc(OC(F)(F)F)cc1 [Compound 389] | 65 | 97 | > 99 | > 99 | – | – | – |
| CCCCCCCc1ccc(-c2ccc(OC(F)(F)F)cc2)cc1N(CCCCc1ccccc1)C(=O)C(=O)O [Compound 371] | 10 | 17 | 93 | 91 | – | – | 690 |
| CCCCCCCOc1ccc(N(CCCCc2ccccc2)C(=O)C(=O)O)cc1-c1ccc(OC(F)(F)F)cc1 [Compound 394] | 13 | 69 | 98 | > 99 | – | – | – |
| CCCCCOc1cc(N(CCCCc2ccccc2)C(=O)C(=O)O)ccc1-c1ccc(OC(F)(F)F)cc1 [Compound 654] | 4 | 19 | > 99 | > 99 | – | – | – |
| CCCCCOc1ccc(-c2ccc(OCC(=O)O)c(Oc3ccc(C(C)(C)C)cc3)c2)cc1 [Compound 440] | 0 | 3 | 96 | > 99 | – | – | – |
| O=C(O)/C=C/c1cc(-c2ccc(OC(F)(F)F)cc2)ccc1OCCCCCOc1ccc(-c2ccc(OC(F)(F)F)cc2)cc1/C=C/C(=O)O [Compound 543] | 0 | 1 | 73 | 94 | – | – | – |

| Compound | inhibition at 0.1 µM [%] | inhibition at 0.3 µM [%] | inhibition at 1 µM [%] | inhibition at 3 µM [%] | inhibition at 10 µM [%] | inhibition at 25 µM [%] | IC50 (concentration that inhibits 50 % of the human PAI-1 activity, calculated from the inhibition rates of Test Example 2, read-out: IC50) [nM] |
| --- | --- | --- | --- | --- | --- | --- | --- |
| CC(C)(C)c1ccc(Sc2cc(-c3ccc(OC(F)(F)F)cc3)ccc2/C=C\C(=O)O)cc1 [Compound 529] | 18 | 29 | 94 | > 99 | – | – | – |
| CC(C)c1ccc(Sc2cc(-c3ccc(OC(F)(F)F)cc3)ccc2/C=C/C(=O)O)cc1 [Compound 516] | 16 | 39 | 98 | > 99 | – | – | – |
| CC(C)(C)c1cccc(Oc2ccc(-c3ccc(OC(F)(F)F)cc3)cc2/C=C/C(=O)O)c1 [Compound 437] | 0 | 12 | 67 | 98 | – | – | – |
| O=C(O)CCc1cc(-c2ccc(OC(F)(F)F)cc2)ccc1OCCCCCOc1ccc(-c2ccc(OC(F)(F)F)cc2)cc1CCC(=O)O [Compound 544] | 0 | 3 | 56 | 92 | – | – | – |
| CCCCC(Oc1cc(-c2ccc(OC(F)(F)F)cc2)ccc1OCCCCc1ccccc1)C(=O)O (stereo not drawn) [Compound 306] | 0 | 0 | 72 | 97 | – | – | – |
| O=C(O)C(=O)N(CCCCc1ccccc1)c1ccc(N2CCCCCC2)c(-c2ccc(OC(F)(F)F)cc2)c1 [Compound 674] | 5 | 55 | > 99 | 98 | – | – | – |
| CC(C)c1ccccc1Oc1cc(-c2ccc(OC(F)(F)F)cc2)ccc1/C=C/C(=O)O [Compound 490] | 6 | 13 | 91 | > 99 | – | – | – |
| O=C(O)C(=O)N(Cc1ccc(-c2ccc(OC(F)(F)F)cc2)cc1)c1ccccc1 [Compound 611] | – | – | 5 | 13 | 45 | 81 | – |
| CC(C)(C)c1ccc(Oc2cc(-c3ccc(C(C)(C)C)cc3)ccc2/C=C/C(=O)O)cc1 [Compound 495] | 8 | 64 | 98 | > 99 | – | – | – |
| CCCCC(Oc1cc(-c2ccc(OC(F)(F)F)cc2)ccc1OCc1ccc(C(C)(C)C)cc1)C(=O)O (stereo not drawn) [Compound 313] | 1 | 3 | 52 | 93 | – | – | – |
| CC(C)(C)c1cccc(Oc2cc(-c3cccc(OC(F)(F)F)c3)ccc2/C=C/C(=O)O)c1 [Compound 514] | 21 | 22 | 96 | > 99 | – | – | – |
| CCCCCOc1cc(-c2ccc(OC(F)(F)F)cc2)cc(N(CCCCc2ccccc2)C(=O)C(=O)O)c1OCCCCC [Compound 372] | 2 | 27 | 97 | 93 | – | – | – |
| CCCCCOc1cc(-c2ccc(C(F)(F)F)cc2)ccc1N(CCCCc1ccccc1)C(=O)C(=O)O [Compound 392] | 7 | 14 | 77 | > 99 | – | – | – |
| O=C(O)CCc1ccc(-c2ccc(OC(F)(F)F)cc2)cc1Oc1ccc(OC(F)(F)F)cc1 [Compound 479] | 17 | 14 | 70 | > 99 | – | – | – |
| CC(C)(C)c1ccc(COc2ccc(N3CCN(c4ccc(OC(F)(F)F)cc4)CC3)cc2CCC(=O)O)cc1 [Compound 419] | – | – | 41 | 93 | 98 | > 99 | – |
| CC(C)(C)c1ccc(Oc2cc(-c3ccc(C#N)cc3)ccc2OCC(=O)O)cc1 [Compound 471] | 5 | 7 | 11 | 49 | – | – | – |
| O=C(O)CCc1ccc(-c2ccc(OC(F)(F)F)cc2)cc1OCCCOCc1ccccc1 [Compound 488] | 0 | 10 | 36 | 91 | – | – | – |
| CCCCCOc1ccc(-c2ccc(Cl)cc2)cc1N(CCCCc1ccccc1)C(=O)C(=O)O [Compound 361] | 9 | 5 | 68 | 97 | – | – | – |
| Cc1cc(C)cc(-c2ccc(CCC(=O)O)c(Oc3ccc(C(C)(C)C)cc3)c2)c1 [Compound 498] | 1 | 4 | 44 | > 99 | – | – | – |
| CCCCCOc1ccc(-c2ccc(OC(F)(F)F)cc2)cc1N(CCCCc1cc(C)ccc1C)C(=O)C(=O)O [Compound 670] | 6 | 55 | 97 | 94 | – | – | – |
